# Data as given in patent publication US7741521B2, “Inhibition of bid-induced cell-death using small organic molecules” (The Burnham Institute, priority 2004, dated 2010).
# Tests used:
# tBID = biological target: T1, tBID (Mus musculus, UniProt P70444); assay: NMR chemical shift mapping with tBID (BID cleaved with caspase-8); type: binding; details: 15N-BID after cleavage with caspase-8
# T1 construct: tBID was produced by cleavage of purified BID with caspase-8, as known in the art; made in house; host or cells: E. coli BL21 (BID), then cleaved in vitro with caspase-8
# T1 sequence (P70444 60-195 limits assumed): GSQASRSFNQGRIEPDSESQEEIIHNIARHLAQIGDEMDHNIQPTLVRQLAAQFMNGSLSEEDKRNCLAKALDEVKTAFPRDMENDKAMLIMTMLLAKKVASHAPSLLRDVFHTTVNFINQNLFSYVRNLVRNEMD
# T1 sequence (P70444 1-59 partner limits assumed): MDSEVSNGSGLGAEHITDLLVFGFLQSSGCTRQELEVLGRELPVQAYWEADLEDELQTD
# Method: (§1) Recombinant full length mouse BID was produced from a pET-19b (Novagen) plasmid construct containing the entire nucleotide sequence for BID fused to an N-terminal poly-His tag. Unlabeled BID was expressed in E. coli BL21 in LB media at 37° C., with an induction period of 3-4 hours with 1 mM IPTG. ^15N-labeled BID was similarly produced, with growth occurring in M9 media supplemented with 0.5 g/L ^15NH4Cl. ε-^13C-Met labeled BID was produced in M9 media supplemented with 50 mg/L of ε-^13C-Met at time of induction with IPTG. Following cell lysis, soluble BID was purified over a Hi-Trap chelating column (Amersham, Pharmacia), followed by ion-exchange purification with a MonoQ (Amersham, Pharmacia) column. Final BID samples were dialyzed into a buffer appropriate for the subsequent experiments. tBID was produced by cleavage of purified BID with caspase-8, as known in the art.
# For all NMR experiments, BID was exchanged into 50 mM phosphate buffer at pH 7.5 and measurements were performed at 30° C. 2D [^15N,^1H]-TROSY spectra for BID were measured with 0.5 mM samples of ^15N-labeled BID. 2D [^13C,^1H]-HSQC spectra were measured with 0.2 mM samples of ε-^13C-Met labeled BID. 2D [^1H,^1H]-NOESY spectra were acquired with small molecules at a concentration of 0.9 mM in the presence of 10 μM BID. […]
# BID = biological target: T2, BID (Mus musculus, UniProt P70444); assay: NMR binding to BID (HSQC/TROSY chemical shifts)
# T2 construct: poly-His (N); made in house; host or cells: E. coli BL21
# T2 sequence (P70444 1-195): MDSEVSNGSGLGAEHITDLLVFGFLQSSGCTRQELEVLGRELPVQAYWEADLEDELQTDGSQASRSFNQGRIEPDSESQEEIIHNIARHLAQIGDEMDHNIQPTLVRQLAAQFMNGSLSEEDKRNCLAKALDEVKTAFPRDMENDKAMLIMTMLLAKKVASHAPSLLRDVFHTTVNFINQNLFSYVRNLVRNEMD
# Method: as §1
# For all NMR experiments, BID was exchanged into 50 mM phosphate buffer at pH 7.5 and measurements were performed at 30° C. 2D [^15N,^1H]-TROSY spectra for BID were measured with 0.5 mM samples of ^15N-labeled BID. 2D [^13C,^1H]-HSQC spectra were measured with 0.2 mM samples of ε-^13C-Met labeled BID. 2D [^1H,^1H]-NOESY spectra were acquired with small molecules at a concentration of 0.9 mM in the presence of 10 μM BID. T1ρ competition experiments (200 msec spin-lock duration) were performed on either 100 μM BI-2A7 or a mixture of 100 μM BI-2A7 and 10 μM BI-6C9, in the presence and absence of 10 μM BID. All experiments were performed with either a 500 MHz or 600 MHz Bruker Avance spectrometer, both equipped with TXI probes. Typical parameters for the 2D [^15N,^1H]-TROSY spectra included ^1H and ^15N π/2 pulse lengths of 11 μsec and 40 μsec, respectively; ^1H and ^15N sweep widths of 12 ppm and 32 ppm, respectively; 16 scans and 256 indirect acquisition points and a recycle delay of 1 sec. For the 2D [^13C,^1H]-HSQC typical parameters included ^1H and ^13C π/2 pulse lengths of 10 μsec and 13 μsec, respectively; ^1H and ^13C sweep widths of 12 ppm and 5 ppm, respectively; 128 scans and 80 indirect acquisition points and a recycle delay of 1 sec. […]
# To examine the binding affinity of some compounds of the invention to BID, 2D [^13C,^1H]-HSQC spectra in presence of ^13C methionine-labeled protein were measured, as at least one methionine is present in the hydrophobic groove of BID (FIG. 4B). […]
# Monitoring the variation of cross-peak intensity upon addition of increasing amounts of compound II, allowed to estimate its dissociation constant KD. The arrow on FIG. 5C indicates the peak that was monitored to determine the Kd for compound II. […]
Compound,binding to tBID compared with full-length BID (tBID),"specific binding to BID, affinity range (BID; 2D [15N-1H]-TROSY chemical shift perturbations)",binding to BID (BID; NMR),"Kd (BID; 2D [13C,1H]-HSQC, 13C methionine-labeled BID, cross-peak intensity upon titration, read-out: dissociation constant KD)"
"Nc1ccc(Sc2ccc(NC(=O)CNC(=O)c3ccc(O)cc3O)cc2)cc1 [Compound I, N-((4-(4-aminophenylthio)phenylcarbamoyl)methyl)-2,4-dihydroxybenzamide]",higher affinity,low micromolar range,strong binder,
"COc1ccc(S(=O)(=O)NCCCC(=O)Nc2ccc(Sc3ccc(N)cc3)cc2)cc1 [Compound II, N-[4-(4-amino-phenylsulfanyl)-phenyl]-4-(4-methoxy-benzenesulfonylamino)-butyramide]",binding even better,,,~20 µM
